In the experiment the test system is L1210 leukemia ip in BDF1 mice, survival T/C. In words: NCI In Vivo Anticancer Drug Screen. Data for tumor model L1210 Leukemia (intraperitoneal) in B6D2F1 (BDF1) mice. Particulars: endpoint: mean survival time, higher = longer survival. Put shortly:
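Transplantable tumor model; survival measured in treated vs vehicle control mice. Value = treated/control.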

The mark [1] stands for this setting: dose: 50.0 mg/kg/injection, schedule: Q01DX001 (ip), vehicle: saline.
The mark [2] stands for this setting: dose: 200.0 mg/kg/injection, schedule: Q01DX001 (ip), vehicle: saline.
Setting [3] is: dose: 100.0 mg/kg/injection, schedule: Q01DX009 (ip), vehicle: saline with Tween-80.
The mark [4] stands for this setting: dose: 100.0 mg/kg/injection, schedule: Q04DX003 (ip), vehicle: saline with Tween-80.
[5] abbreviates: dose: 200.0 mg/kg/injection, schedule: Q04DX003 (ip), vehicle: saline with Tween-80.
[6] abbreviates: dose: 100.0 mg/kg/injection, schedule: Q04DX002 (ip), vehicle: saline.
The mark [7] stands for this setting: dose: 400.0 mg/kg/injection, schedule: Q04DX002 (ip), vehicle: saline.

Values joined by “and” are separate entries in the source; they are usually repeats but may differ in a detail not shown here. Identical values can stand only once. Toxic doses and inconclusive results are not listed.

`Cc1nc(N)nc(N)c1-c1ccc(Cl)c(Cl)c1`: the T/C is, setting by setting: (dose: 0.6 mg/kg/injection, schedule: Q01DX Z (ip), vehicle: methylcellulose (MC)) 106 % of control; (dose: 1.0 mg/kg/injection, schedule: Q01DX009 (ip), vehicle: saline with Tween-80) 102 % of control; (dose: 1.0 mg/kg/injection, schedule: Q01DX Z (ip), vehicle: methylcellulose (MC)) 102 % of control; (dose: 1.0 mg/kg/injection, schedule: Q04DX009 (ip), vehicle: Klucel (hydroxypropylcellulose) (HPC)) 96 % of control; (dose: 1.08 mg/kg/injection, schedule: Q01DX009 (ip), vehicle: saline) 117 % of control; (dose: 1.5 mg/kg/injection, schedule: Q01DX Z (ip), vehicle: methylcellulose (MC)) 106 % of control. The T/C (dose: 1.8 mg/kg/injection, schedule: Q01DX009 (ip), vehicle: saline) was 107 % of control; the T/C (dose: 2.0 mg/kg/injection, schedule: Q04DX009 (ip), vehicle: Klucel (hydroxypropylcellulose) (HPC)) was 120 % of control; the T/C (dose: 2.3 mg/kg/injection, schedule: Q01DX Z (ip), vehicle: methylcellulose (MC)) is 112 % of control; the T/C (dose: 3.0 mg/kg/injection, schedule: Q01DX009 (ip), vehicle: saline) was 114 % of control; the T/C (dose: 3.0 mg/kg/injection, schedule: Q01DX010 (sc), vehicle: other) is 152 % of control; the T/C (dose: 4.0 mg/kg/injection, schedule: Q01DX010 (sc), vehicle: other) is 152 % of control. Besides, the T/C reads like this: (dose: 4.0 mg/kg/injection, schedule: Q01DX Z (ip), vehicle: methylcellulose (MC)) 118 % of control; (dose: 5.0 mg/kg/injection, schedule: Q01DX009 (ip), vehicle: saline) 122 % of control; (dose: 6.0 mg/kg/injection, schedule: Q01DX Z (ip), vehicle: methylcellulose (MC)) 123 % of control; (dose: 8.0 mg/kg/injection, schedule: Q01DX009 (ip), vehicle: saline with Tween-80) 102 % of control; (dose: 8.0 mg/kg/injection, schedule: Q04DX009 (ip), vehicle: Klucel (hydroxypropylcellulose) (HPC)) 115 % of control; (dose: 8.4 mg/kg/injection, schedule: Q04DX003 (ip), vehicle: saline) 102 % of control. Moreover, the T/C was 95 % of control (dose: 12.5 mg/kg/injection, schedule: Q04DX003 (ip), vehicle: saline); 115 % of control (dose: 14.0 mg/kg/injection, schedule: Q04DX003 (ip), vehicle: saline); 90 % of control (dose: 16.0 mg/kg/injection, schedule: Q01DX009 (ip), vehicle: saline with Tween-80); 110 % of control (dose: 16.0 mg/kg/injection, schedule: Q04DX009 (ip), vehicle: Klucel (hydroxypropylcellulose) (HPC)); 105 % of control (dose: 23.0 mg/kg/injection, schedule: Q04DX003 (ip), vehicle: saline); 98 % of control (dose: 25.0 mg/kg/injection, schedule: Q01DX001 (ip), vehicle: saline). For the same molecule, the T/C is, setting by setting: (dose: 25.0 mg/kg/injection, schedule: Q04DX003 (ip), vehicle: saline) 122 % of control; (dose: 39.0 mg/kg/injection, schedule: Q04DX003 (ip), vehicle: saline) 119 % of control; under setting [1], 112 % of control; (dose: 65.0 mg/kg/injection, schedule: Q04DX003 (ip), vehicle: saline) 115 % of control; under setting [2], 88 % of control.
For the molecule `CC(C)=C(C=O)CCC(C)C`, the T/C is 93 % of control under setting [3]; 95 % of control under setting [4]; 88 % of control (dose: 200.0 mg/kg/injection, schedule: Q01DX009 (ip), vehicle: saline with Tween-80); 93 % of control under setting [5]; 97 % of control (dose: 400.0 mg/kg/injection, schedule: Q04DX003 (ip), vehicle: saline with Tween-80).
As for `CC1(c2ccc(Cl)s2)C(=O)N(Cl)C(=O)N1Cl` (stereo not given), the T/C is 95 % of control (dose: 12.5 mg/kg/injection, schedule: Q01DX009 (ip), vehicle: saline with Tween-80); 100 % of control (dose: 25.0 mg/kg/injection, schedule: Q01DX009 (ip), vehicle: saline with Tween-80); 94 % of control and 89 % of control (dose: 50.0 mg/kg/injection, schedule: Q01DX009 (ip), vehicle: saline with Tween-80); 93 % of control under setting [3]; 96 % of control under setting [4]; 98 % of control under setting [5].
In the case of `CCCCC(=O)N1C(C)CCCC1C` (stereo not given), the T/C runs as follows: (dose: 25.0 mg/kg/injection, schedule: Q04DX002 (ip), vehicle: saline) 88 % of control; (dose: 50.0 mg/kg/injection, schedule: Q04DX002 (ip), vehicle: saline) 91 % of control; under setting [6], 94 % of control; under setting [7], 96 % of control.
As for `O=P(O)(O)c1ccccc1`, the T/C was 96 % of control (dose: 50.0 mg/kg/injection, schedule: Q01DX001 (ip), vehicle: carboxymethylcellulose (CMC)); 107 % of control (dose: 100.0 mg/kg/injection, schedule: Q01DX001 (ip), vehicle: carboxymethylcellulose (CMC)); 98 % of control (dose: 200.0 mg/kg/injection, schedule: Q01DX001 (ip), vehicle: carboxymethylcellulose (CMC)).
`Cc1nc2ccccc2c(=O)n1-c1ccc(N(CCCl)CCCl)cc1`: the T/C is 98 % of control under setting [6]; 117 % of control (dose: 200.0 mg/kg/injection, schedule: Q04DX002 (ip), vehicle: saline); 103 % of control under setting [7].
Consider `O=N[O-].O=N[O-].O=N[O-].O=N[O-].[Co+2].[NH2-].[NH2-]`, for which the T/C reads like this: under setting [4], 115 % of control; under setting [5], 118 % of control.
In the case of `O=C(/C=C/C(=O)Oc1ccccc1)Oc1ccccc1`, the T/C was 88 % of control (dose: 100.0 mg/kg/injection, schedule: Q01DX009 (ip), vehicle: Klucel (hydroxypropylcellulose) (HPC)); 107 % of control (dose: 100.0 mg/kg/injection, schedule: Q04DX003 (ip), vehicle: Klucel (hydroxypropylcellulose) (HPC)); 91 % of control (dose: 200.0 mg/kg/injection, schedule: Q01DX009 (ip), vehicle: Klucel (hydroxypropylcellulose) (HPC)); 107 % of control (dose: 200.0 mg/kg/injection, schedule: Q04DX003 (ip), vehicle: Klucel (hydroxypropylcellulose) (HPC)); 98 % of control (dose: 400.0 mg/kg/injection, schedule: Q01DX009 (ip), vehicle: Klucel (hydroxypropylcellulose) (HPC)); 98 % of control (dose: 400.0 mg/kg/injection, schedule: Q04DX003 (ip), vehicle: Klucel (hydroxypropylcellulose) (HPC)).
For the molecule `c1ccc(-c2nnc(N3CCCCC3)nc2-c2ccccc2)cc1`, the T/C is 100 % of control under setting [1]; 88 % of control (dose: 100.0 mg/kg/injection, schedule: Q01DX001 (ip), vehicle: saline); 94 % of control under setting [2].
Consider `OC1(C2CCC(C(F)(F)F)CC2)C2C=CC1CC2` (stereo not given), for which the T/C (dose: 75.0 mg/kg/injection, schedule: Q04DX002 (ip), vehicle: Klucel (hydroxypropylcellulose) (HPC)) is 93 % of control; the T/C (dose: 150.0 mg/kg/injection, schedule: Q04DX002 (ip), vehicle: Klucel (hydroxypropylcellulose) (HPC)) is 93 % of control; the T/C (dose: 300.0 mg/kg/injection, schedule: Q04DX002 (ip), vehicle: Klucel (hydroxypropylcellulose) (HPC)) was 100 % of control.
For the molecule `CN(C)C(=S)SCC(=O)NC(CO)C(=O)O` (stereo not given), the T/C reads like this: (dose: 100.0 mg/kg/injection, schedule: Q04DX002 (ip), vehicle: saline with Tween-80) 100 % of control; (dose: 200.0 mg/kg/injection, schedule: Q04DX002 (ip), vehicle: saline with Tween-80) 107 % of control; (dose: 400.0 mg/kg/injection, schedule: Q04DX002 (ip), vehicle: saline with Tween-80) 111 % of control.
For the molecule `N#Cc1oc2ccccc2c1OC(=O)C(F)(F)F`, the T/C is 100 % of control under setting [4] and 95 % of control under setting [5].
For `CCOc1cc(C=Nc2cc(Br)c(OC)c(Br)c2)ccc1N(CCCl)CCCl`, the T/C is 106 % of control (dose: 4.0 mg/kg/injection, schedule: Q01DX009 (ip), vehicle: carboxymethylcellulose (CMC)); 115 % of control (dose: 7.0 mg/kg/injection, schedule: Q01DX009 (ip), vehicle: carboxymethylcellulose (CMC)); 122 % of control (dose: 8.9 mg/kg/injection, schedule: Q01DX001 (ip), vehicle: carboxymethylcellulose (CMC)); 109 % of control (dose: 11.0 mg/kg/injection, schedule: Q01DX009 (ip), vehicle: carboxymethylcellulose (CMC)); 123 % of control (dose: 17.0 mg/kg/injection, schedule: Q01DX009 (ip), vehicle: carboxymethylcellulose (CMC)); 122 % of control (dose: 133.0 mg/kg/injection, schedule: Q01DX001 (ip), vehicle: carboxymethylcellulose (CMC)).

The values above are taken from PubChem BioAssay AID248 (DTP/NCI, 2004).
